In US20230374148A1, “BINDING MOLECULES THAT MULTIMERISE CD45” (UCB BIOPHARMA SRL, priority 2020, published 2023):

How the values were obtained:
Assay type in all cases: cell-based, human
M1 macrophages [1] = assay: Caspase-3/7 induction, IncuCyte, M1; settings: over 6 days, BYbe 250-2 nM, Camptothecin, Staurosporine 5 μM
Experimental: (§1) Human PBMC derived from blood leukocyte platelet-apheresis cones (NHSBT Oxford) were banked as frozen aliquots. Prior to an assay being performed, 2 vials of frozen cells, each containing 5×10^7 cells in 1 ml, were thawed in a 37° C. water bath and then added to 50 ml complete media (RPMI 1640+2 mM GlutaMAX+1% Pen/Strep, all previous supplied by Invitrogen, +10% Fetal Bovine Serum (FBS), Sigma Aldrich). Cells were spun (500 g, 5 min, at RT) and re-suspended in 30 ml complete media to wash and spun again. Cells were resuspended in 20 ml MACS buffer (PBS, pH 7.2, 0.5% bovine serum albumin (BSA), and 2 mM EDTA, Sigma Aldrich) and counted on a ChemoMetec NucleoCounter NC-3000 to determine concentration and viability. PBMCs from one donor (UCB-Cones 802) was used in this assay. Monocyte isolation was performed using the Pan Monocyte Isolation Kit (Miltenyi Biotec, cat no. 130-096-537) and LS columns (Miltenyi Biotec, cat no 130-042-401) according to manufacturer's instructions. 100 μl of cells were removed and stored on ice to check monocyte purity post isolation. Isolated cells were stained with BV421 mouse anti-human CD14 (BD Biosciences, cat no. 563743) to check for purity of monocytes using FACS. M-CSF (Sigma Aldrich, cat no. SRP3110) and GM-CSF (R&D Systems, cat no. 215-GM/CF) were prepared at 100 μg/ml. Cells were prepared in M1 media (complete media+50 ng/ml GM-CSF) or M2 media (complete media+50 ng/ml M-CSF) at a concentration of 2.5×10^5 cells/ml. 200 μl cells were plated into two Corning 96 well Black polystyrene microplates (Sigma Aldrich) and incubated at 37° C., 5% CO2. Following a 3-day incubation at 37° C., 5% CO2, the plate was spun (500 g, 5 min, RT), buffer was aspirated, the cells were washed once with PBS and then resuspended in 200 μL of M1 media or M2 media. […] The caspase dye was measured with the green laser (350 ms) and the cytotox dye was measured with a red laser (650 ms). The green dye signal was analysed using Incucyte® Zoom2016B. […]

M1 macrophages [2] = assay: Macrophage viability, CellTiter-Glo, M1; settings: 24 hr, BYbe 250-2 nM, Camptothecin, Staurosporine 5 μM
Experimental: (§2) Human PBMC derived from blood leukocyte platelet-apheresis cones (NHSBT Oxford) were banked as frozen aliquots. Prior to an assay being performed, 2 vials of frozen cells, each containing 5×10^7 cells in 1 ml, were thawed in a 37° C. water bath and then added to 50 ml complete media (RPMI 1640+2 mM GlutaMAX+1% Pen/Strep, all previous supplied by Invitrogen, +10% Fetal Bovine Serum (FBS), Sigma Aldrich). Cells were spun (500 g, 5 min, at RT) and re-suspended in 30 ml complete media to wash and spun again. Cells were resuspended in 20 ml MACS buffer (PBS, pH 7.2, 0.5% bovine serum albumin (BSA), and 2 mM EDTA, Sigma Aldrich) and counted on a ChemoMetec NucleoCounter NC-3000 to determine concentration and viability. PBMCs from one donor (UCB-Cones 802) was used in this assay.
(§3) Monocyte isolation was performed using the Pan Monocyte Isolation Kit (Miltenyi Biotec, cat no. 130-096-537) and LS columns (Miltenyi Biotec, cat no 130-042-401) according to manufacturer's instructions. 100 μl of cells were removed and stored on ice to check monocyte purity post isolation. […]
(§4) One microplate was incubated for a further 24 hours in 37° C. incubator with 5% CO2 before being used to assess cell viability with CellTiter-Glo®. […] The plate was then read on the BMG Labtech PHERAstar FSX microplate reader using the CellTiter-Glo program.

M2 macrophages [3] = assay: Macrophage viability, CellTiter-Glo, M2; settings: 24 hr, BYbe 250-2 nM, Camptothecin, Staurosporine 5 μM
Experimental: as §2, §3, §4

M2 macrophages [4] = assay: Caspase-3/7 induction, IncuCyte, M2; settings: over 6 days, BYbe 250-2 nM, Camptothecin, Staurosporine 5 μM
Experimental: as §1

SMILES	levels of Caspase-3/7 (M1 macrophages [1])	cell viability (CellTiter-Glo) (M1 macrophages [2])	cell viability (CellTiter-Glo) (M2 macrophages [3])	levels of Caspase-3/7 (M2 macrophages [4])
CC[C@@]1(O)C(=O)OCc2c1cc1n(c2=O)Cc2cc3ccccc3nc2-1 [Camptothecin]	significant levels	reduced the viability	reduced the viability	significant levels
CN[C@@H]1C[C@H]2O[C@@](C)([C@@H]1OC)n1c3ccccc3c3c4c(c5c6ccccc6n2c5c31)C(=O)NC4 [Staurosporine]	very low	little or no viable cells detected	little or no viable cells detected	very low
